Source: patent publication US20080009418A1, “Selective Inhibitors” (Alchemia LTD., priority 2004, published 2008)

Legend:
[1] = target: T1, Human melanocortin (MC5) (Homo sapiens, UniProt P33032); assay: Radioligand binding, human melanocortin MC5 membranes, FlashPlate, [125I]-NDP-αMSH; details: compound at 10 μM; [125I]-NDP-αMSH
T1 construct: purchased Perkin Elmer Biosignal
Outline: (§1)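 Cloned human receptor membranes were coated onto FlashPlate wells and incubated with radioligand and compound (added from a 0.5 mM DMSO daughter plate) for 1 hour at room temperature in the dark. Scintillation counting gave percent inhibition, with DMSO defining total and reference ligand defining non-specific binding.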

[2] = target: T2, Human μ-opioid (MOP) (Homo sapiens, UniProt P35372); assay: Radioligand binding, human μ-opioid (MOP) membranes, FlashPlate, [3H]-Naloxone; details: compound at 10 μM; [3H]-Naloxone
T2 construct: purchased Perkin Elmer Biosignal
Outline: as §1

[3] = target: T3, Human opioid (ORL1) (Homo sapiens, UniProt P41146); assay: Radioligand binding, human opioid ORL1 membranes, FlashPlate, [125I]-Nociceptin; details: compound at 10 μM; [125I]-Nociceptin
T3 construct: purchased Perkin Elmer Biosignal
Outline: as §1

[4] = target: T4, Human Melanocortin (MC3) (Homo sapiens, UniProt P41968); assay: Radioligand binding, human melanocortin MC3 membranes, FlashPlate, [125I]-NDP-αMSH; details: compound at 10 μM; [125I]-NDP-αMSH
T4 construct: purchased Perkin Elmer Biosignal
Outline: as §1

[5] = target: T5, Human neurokinin (NK1) (Homo sapiens, UniProt P25103); assay: Radioligand binding, human neurokinin NK1 membranes, filtration, [125I]-Substance P; details: compound at 10 μM; [125I]-Substance P
T5 construct: purchased Perkin Elmer Biosignal
Outline: (§2)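 Filtration binding on cloned human receptor membranes (1 Unit/well), [125I]-Substance P for NK1 and [3H]-Diprenorphine for KOP, 1 h at room temperature. Filters PEI-presoaked, washed with cold 50 mM Tris-HCl pH 7.4, counted by scintillation; percent inhibition calculated, reference ligand defining non-specific binding.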

[6] = target: T6, Mouse urotensin (mUR2) (Mus musculus, UniProt Q8VIH9); assay: Radioligand binding, mouse urotensin mUR2 membranes, FlashPlate, [125I]-Urotensin II; details: compound at 10 μM; [125I]-Urotensin II
T6 construct: purchased Perkin Elmer Biosignal
T6 sequence (Q8VIH9 1-385): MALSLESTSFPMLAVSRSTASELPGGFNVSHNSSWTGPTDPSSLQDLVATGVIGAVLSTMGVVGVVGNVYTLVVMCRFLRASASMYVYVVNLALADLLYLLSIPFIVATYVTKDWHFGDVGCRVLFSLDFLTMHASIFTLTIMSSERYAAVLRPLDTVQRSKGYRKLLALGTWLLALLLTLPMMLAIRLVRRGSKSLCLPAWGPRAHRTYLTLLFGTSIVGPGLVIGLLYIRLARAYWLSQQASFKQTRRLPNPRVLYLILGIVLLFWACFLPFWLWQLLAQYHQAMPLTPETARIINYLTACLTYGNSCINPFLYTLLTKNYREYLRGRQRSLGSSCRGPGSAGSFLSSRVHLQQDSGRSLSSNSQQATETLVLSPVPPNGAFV
Outline: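 Cloned mouse urotensin (mUR2) receptor membranes from Perkin Elmer Biosignal were immobilized in FlashPlate microplates using a proprietary coating. Each well got 19.5 μl buffer, then 0.5 μl of DMSO, reference ligand, or compound. Adding 5 μl of [125I]-Urotensin II, diluted to 5× final concentration in binding buffer, started binding. Plates were sealed with TopSeal-A and incubated 1 hour at room temperature in the dark. Wells were counted for 30 seconds each on a TopCount after a 60-second delay, and percentage inhibition was calculated.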

[7] = target: T7, Human κ-Opioid (KOP) (Homo sapiens, UniProt P41145); assay: Radioligand binding, human κ-opioid (KOP) membranes, filtration, [3H]-Diprenorphine; details: compound at 10 μM; [3H]-Diprenorphine
T7 construct: purchased Perkin Elmer Biosignal
Outline: as §2

[8] = target: T8, Human neuropeptide Y (NPY-Y1) (Homo sapiens, UniProt P25929); assay: Radioligand binding, human neuropeptide Y NPY-Y1 membranes, FlashPlate, [125I]-PYY; details: compound at 10 μM; [125I]-PYY
T8 construct: purchased Perkin Elmer Biosignal
T8 sequence (P25929 1-384): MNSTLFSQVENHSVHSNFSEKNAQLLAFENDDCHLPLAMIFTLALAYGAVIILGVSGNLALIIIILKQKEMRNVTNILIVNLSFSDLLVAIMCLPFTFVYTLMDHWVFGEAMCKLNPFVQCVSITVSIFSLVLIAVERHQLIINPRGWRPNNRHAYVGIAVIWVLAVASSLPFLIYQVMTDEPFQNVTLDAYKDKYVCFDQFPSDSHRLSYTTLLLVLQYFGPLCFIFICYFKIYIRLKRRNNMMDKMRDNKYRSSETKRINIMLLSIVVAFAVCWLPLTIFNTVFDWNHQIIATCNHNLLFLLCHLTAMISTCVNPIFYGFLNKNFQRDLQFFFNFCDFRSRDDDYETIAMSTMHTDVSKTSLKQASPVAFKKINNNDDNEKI
Outline: as §1

[9] = target: T9, Human δ-opioid (DOP) (Homo sapiens, UniProt P41143); assay: Radioligand binding, human δ-opioid (DOP) membranes, FlashPlate, [3H]-Bremazocine; details: compound at 10 μM; [3H]-Bremazocine
T9 construct: purchased Perkin Elmer Biosignal
Outline: as §1

[10] = target: T10, Human melanin-concentrating hormone (MCH1) (Homo sapiens, UniProt Q99705); assay: Radioligand binding, human melanin-concentrating hormone MCH1 membranes, FlashPlate, [125I]-S36057; details: compound at 10 μM; [125I]-S36057
T10 construct: purchased Perkin Elmer Biosignal
Outline: as §1

[11] = target: T11, Human Melanocortin (MC4) (Homo sapiens, UniProt P32245); assay: Radioligand binding, human melanocortin MC4 membranes, FlashPlate, [125I]-NDP-αMSH; details: compound at 10 μM; [125I]-NDP-αMSH
T11 construct: purchased Perkin Elmer Biosignal
Outline: as §1

T7 sequence (P41145 whole entry): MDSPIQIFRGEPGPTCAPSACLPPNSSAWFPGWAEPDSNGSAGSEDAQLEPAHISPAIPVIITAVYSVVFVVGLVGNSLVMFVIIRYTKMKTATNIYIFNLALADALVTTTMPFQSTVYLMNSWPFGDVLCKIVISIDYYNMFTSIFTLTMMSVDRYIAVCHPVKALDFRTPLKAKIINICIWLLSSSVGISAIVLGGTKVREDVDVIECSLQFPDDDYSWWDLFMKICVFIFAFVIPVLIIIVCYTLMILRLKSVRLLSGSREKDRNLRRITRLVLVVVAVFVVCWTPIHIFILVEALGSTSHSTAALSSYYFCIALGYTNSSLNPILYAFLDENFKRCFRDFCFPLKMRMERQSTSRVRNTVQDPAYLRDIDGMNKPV
T9 sequence (P41143 whole entry): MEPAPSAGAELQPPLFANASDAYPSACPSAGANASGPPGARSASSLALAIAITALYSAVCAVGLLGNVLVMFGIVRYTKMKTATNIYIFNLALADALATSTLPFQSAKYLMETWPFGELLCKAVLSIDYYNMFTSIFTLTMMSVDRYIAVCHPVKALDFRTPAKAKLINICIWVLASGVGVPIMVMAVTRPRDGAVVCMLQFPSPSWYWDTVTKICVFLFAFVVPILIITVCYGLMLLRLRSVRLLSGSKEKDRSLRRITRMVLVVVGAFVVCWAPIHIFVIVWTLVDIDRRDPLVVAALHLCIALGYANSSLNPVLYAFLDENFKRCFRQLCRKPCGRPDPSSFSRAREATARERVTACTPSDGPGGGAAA
T10 sequence (Q99705 whole entry): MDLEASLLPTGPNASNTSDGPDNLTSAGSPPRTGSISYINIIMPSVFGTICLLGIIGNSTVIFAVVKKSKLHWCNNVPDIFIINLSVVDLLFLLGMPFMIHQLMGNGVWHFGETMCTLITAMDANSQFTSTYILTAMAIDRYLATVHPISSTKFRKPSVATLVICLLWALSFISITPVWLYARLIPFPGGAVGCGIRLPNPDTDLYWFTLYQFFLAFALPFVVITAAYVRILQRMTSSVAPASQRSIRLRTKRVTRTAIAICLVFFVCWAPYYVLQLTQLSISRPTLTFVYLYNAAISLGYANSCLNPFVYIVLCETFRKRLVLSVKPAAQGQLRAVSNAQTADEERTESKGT
T11 sequence (P32245 whole entry): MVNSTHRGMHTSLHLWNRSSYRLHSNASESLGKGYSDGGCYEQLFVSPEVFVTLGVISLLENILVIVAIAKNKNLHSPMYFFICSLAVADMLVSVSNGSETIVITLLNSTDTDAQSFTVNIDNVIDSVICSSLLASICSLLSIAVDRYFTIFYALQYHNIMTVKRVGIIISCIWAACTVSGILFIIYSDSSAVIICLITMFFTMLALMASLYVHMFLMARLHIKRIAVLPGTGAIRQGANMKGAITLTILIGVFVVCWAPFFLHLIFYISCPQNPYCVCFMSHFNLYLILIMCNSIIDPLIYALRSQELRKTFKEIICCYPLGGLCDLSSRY
T3 sequence (P41146 whole entry): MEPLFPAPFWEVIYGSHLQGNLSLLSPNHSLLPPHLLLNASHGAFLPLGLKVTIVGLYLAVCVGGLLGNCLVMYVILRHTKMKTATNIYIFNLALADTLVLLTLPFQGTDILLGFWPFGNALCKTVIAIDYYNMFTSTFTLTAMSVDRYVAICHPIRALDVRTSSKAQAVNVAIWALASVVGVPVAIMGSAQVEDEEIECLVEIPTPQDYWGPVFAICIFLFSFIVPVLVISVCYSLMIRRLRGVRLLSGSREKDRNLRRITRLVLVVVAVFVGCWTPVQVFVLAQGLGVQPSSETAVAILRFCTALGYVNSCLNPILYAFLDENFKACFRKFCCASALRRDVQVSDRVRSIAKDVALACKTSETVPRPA
T2 sequence (P35372 whole entry): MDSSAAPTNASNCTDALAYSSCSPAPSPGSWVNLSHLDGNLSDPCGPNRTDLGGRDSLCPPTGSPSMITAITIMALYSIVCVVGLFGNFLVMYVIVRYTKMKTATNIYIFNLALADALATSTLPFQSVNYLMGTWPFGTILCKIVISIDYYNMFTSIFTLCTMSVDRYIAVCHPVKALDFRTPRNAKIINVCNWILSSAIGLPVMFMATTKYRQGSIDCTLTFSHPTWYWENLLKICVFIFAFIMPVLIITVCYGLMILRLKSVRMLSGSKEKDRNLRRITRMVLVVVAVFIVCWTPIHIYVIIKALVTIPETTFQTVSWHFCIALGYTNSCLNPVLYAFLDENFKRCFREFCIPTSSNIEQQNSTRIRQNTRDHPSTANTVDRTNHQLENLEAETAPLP
T4 sequence (P41968 whole entry): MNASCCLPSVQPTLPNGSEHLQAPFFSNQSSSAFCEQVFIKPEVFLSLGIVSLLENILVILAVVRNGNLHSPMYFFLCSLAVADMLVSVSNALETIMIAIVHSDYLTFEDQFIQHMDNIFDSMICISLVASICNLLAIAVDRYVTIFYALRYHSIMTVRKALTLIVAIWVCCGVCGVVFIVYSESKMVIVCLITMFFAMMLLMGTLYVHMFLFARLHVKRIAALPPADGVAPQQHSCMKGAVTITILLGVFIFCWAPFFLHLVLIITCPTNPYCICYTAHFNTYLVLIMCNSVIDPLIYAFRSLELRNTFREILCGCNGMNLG
T5 sequence (P25103 whole entry): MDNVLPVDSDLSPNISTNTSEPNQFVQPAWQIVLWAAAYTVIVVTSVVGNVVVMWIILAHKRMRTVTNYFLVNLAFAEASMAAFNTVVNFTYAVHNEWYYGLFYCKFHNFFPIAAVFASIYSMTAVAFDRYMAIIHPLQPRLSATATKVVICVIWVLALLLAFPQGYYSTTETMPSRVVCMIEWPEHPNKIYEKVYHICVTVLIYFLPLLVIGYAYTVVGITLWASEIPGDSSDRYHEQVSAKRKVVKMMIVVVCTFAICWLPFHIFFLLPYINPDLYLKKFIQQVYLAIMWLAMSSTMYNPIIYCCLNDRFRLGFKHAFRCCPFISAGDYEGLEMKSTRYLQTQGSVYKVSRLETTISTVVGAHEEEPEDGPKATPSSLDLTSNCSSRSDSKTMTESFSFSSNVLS
T1 sequence (P33032 whole entry): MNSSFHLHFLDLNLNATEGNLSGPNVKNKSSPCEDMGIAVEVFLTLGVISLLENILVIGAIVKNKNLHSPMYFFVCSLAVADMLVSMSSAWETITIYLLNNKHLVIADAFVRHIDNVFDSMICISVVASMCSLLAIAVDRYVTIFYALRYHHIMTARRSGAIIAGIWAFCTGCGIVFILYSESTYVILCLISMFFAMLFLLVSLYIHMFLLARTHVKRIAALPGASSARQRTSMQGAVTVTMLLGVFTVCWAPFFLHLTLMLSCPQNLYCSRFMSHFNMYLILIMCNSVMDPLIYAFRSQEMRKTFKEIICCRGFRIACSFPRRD

| SMILES | A5: inhibition of radioligand binding, human melanocortin (MC5) [1] | A7: inhibition of radioligand binding, human μ-opioid (MOP) [2] | A10: inhibition of radioligand binding, human opioid (ORL1) [3] | A3: inhibition of radioligand binding, human melanocortin (MC3) [4] | A8: inhibition of radioligand binding, human neurokinin (NK1) [5] | A11: inhibition of radioligand binding, mouse urotensin (mUR2) [6] | A2: inhibition of radioligand binding, human κ-opioid (KOP) [7] | A9: inhibition of radioligand binding, human neuropeptide Y (NPY-Y1) [8] | A1: inhibition of radioligand binding, human δ-opioid (DOP) [9] | A6: inhibition of radioligand binding, human melanin-concentrating hormone (MCH1) [10] | A4: inhibition of radioligand binding, human melanocortin (MC4) [11] |
| --- | --- | --- | --- | --- | --- | --- | --- | --- | --- | --- | --- |
| CSC1OC(COCc2cccc(N)c2)C(O)C(OCc2ccc(Cl)cc2)C1NC(=O)c1ccccc1 (stereo not drawn) [compound 327] | − (“−” indicates less than 50% inhibition at 10 μM) | − (“−” indicates less than 50% inhibition at 10 μM) | − (“−” indicates less than 50% inhibition at 10 μM) | − (“−” indicates less than 50% inhibition at 10 μM) | + (“+” indicates greater than 50% inhibition at 10 μM) | − (“−” indicates less than 50% inhibition at 10 μM) | − (“−” indicates less than 50% inhibition at 10 μM) | − (“−” indicates less than 50% inhibition at 10 μM) | − (“−” indicates less than 50% inhibition at 10 μM) | − (“−” indicates less than 50% inhibition at 10 μM) | − (“−” indicates less than 50% inhibition at 10 μM) |
| CSC1O[C@H](COCc2ccc(Cl)cc2)[C@@H](O)[C@@H](OCc2ccc(-c3ccccc3)cc2)[C@H]1NC(=O)CCCNC(=N)N (stereo partly drawn) [compound 292] | + (“+” indicates greater than 50% inhibition at 10 μM) | − (“−” indicates less than 50% inhibition at 10 μM) | − (“−” indicates less than 50% inhibition at 10 μM) | − (“−” indicates less than 50% inhibition at 10 μM) | + (“+” indicates greater than 50% inhibition at 10 μM) | − (“−” indicates less than 50% inhibition at 10 μM) | − (“−” indicates less than 50% inhibition at 10 μM) | − (“−” indicates less than 50% inhibition at 10 μM) | − (“−” indicates less than 50% inhibition at 10 μM) | − (“−” indicates less than 50% inhibition at 10 μM) | − (“−” indicates less than 50% inhibition at 10 μM) |
| N=C(N)NCCC(=O)N[C@H]1C(OCc2ccc(Cl)cc2)O[C@H](COCc2ccc3ccccc3c2)[C@@H](O)[C@@H]1OCc1ccc(-c2ccccc2)cc1 (stereo partly drawn) [compound 533] | + (“+” indicates greater than 50% inhibition at 10 μM) | − (“−” indicates less than 50% inhibition at 10 μM) | − (“−” indicates less than 50% inhibition at 10 μM) | + (“+” indicates greater than 50% inhibition at 10 μM) | + (“+” indicates greater than 50% inhibition at 10 μM) | − (“−” indicates less than 50% inhibition at 10 μM) | − (“−” indicates less than 50% inhibition at 10 μM) | − (“−” indicates less than 50% inhibition at 10 μM) | − (“−” indicates less than 50% inhibition at 10 μM) | + (“+” indicates greater than 50% inhibition at 10 μM) | + (“+” indicates greater than 50% inhibition at 10 μM) |
